# Laboratory results reported in ChEMBL document CHEMBL4402545, “Subtype Selective γ-Aminobutyric Acid Type A Receptor (GABAAR) Modulators Acting at the Benzodiazepine Binding Site: An Update” (J Med Chem, 2020).
# Columns and labels:
# [1] = target: T1, GABA-A receptor; alpha-3/beta-3/gamma-2 (Homo sapiens, UniProt P18507+P28472+P34903); experiment: Displacement of [3H]-flumazenil from human GABAA alpha3beta3gamma2 expressed in Ltk cells; format: cell-based
# T1 sequence (P18507 whole entry): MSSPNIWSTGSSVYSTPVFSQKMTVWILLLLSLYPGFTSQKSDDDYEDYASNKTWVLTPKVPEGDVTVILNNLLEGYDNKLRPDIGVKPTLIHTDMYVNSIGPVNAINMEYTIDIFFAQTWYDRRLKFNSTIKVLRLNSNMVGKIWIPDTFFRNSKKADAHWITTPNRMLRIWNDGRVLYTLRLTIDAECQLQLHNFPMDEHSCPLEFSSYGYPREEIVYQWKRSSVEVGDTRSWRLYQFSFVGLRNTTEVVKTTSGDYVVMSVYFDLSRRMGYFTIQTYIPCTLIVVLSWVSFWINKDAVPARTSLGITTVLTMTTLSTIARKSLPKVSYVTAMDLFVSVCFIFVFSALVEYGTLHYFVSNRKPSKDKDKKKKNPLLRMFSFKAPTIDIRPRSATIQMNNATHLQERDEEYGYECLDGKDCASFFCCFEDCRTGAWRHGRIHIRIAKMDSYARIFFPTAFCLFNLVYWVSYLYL
# T1 sequence (P28472 whole entry): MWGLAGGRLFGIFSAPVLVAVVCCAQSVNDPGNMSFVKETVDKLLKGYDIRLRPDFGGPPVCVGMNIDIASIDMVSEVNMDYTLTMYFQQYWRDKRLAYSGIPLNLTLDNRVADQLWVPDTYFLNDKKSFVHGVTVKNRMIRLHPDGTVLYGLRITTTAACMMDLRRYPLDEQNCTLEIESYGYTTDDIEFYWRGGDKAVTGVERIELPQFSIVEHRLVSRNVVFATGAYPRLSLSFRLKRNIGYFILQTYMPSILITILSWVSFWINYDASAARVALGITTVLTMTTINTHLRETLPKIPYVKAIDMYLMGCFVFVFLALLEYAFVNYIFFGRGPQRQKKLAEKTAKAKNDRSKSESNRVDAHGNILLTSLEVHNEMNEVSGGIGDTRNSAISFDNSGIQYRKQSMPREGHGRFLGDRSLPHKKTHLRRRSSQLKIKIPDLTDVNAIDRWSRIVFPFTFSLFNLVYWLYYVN
# T1 sequence (P34903 whole entry): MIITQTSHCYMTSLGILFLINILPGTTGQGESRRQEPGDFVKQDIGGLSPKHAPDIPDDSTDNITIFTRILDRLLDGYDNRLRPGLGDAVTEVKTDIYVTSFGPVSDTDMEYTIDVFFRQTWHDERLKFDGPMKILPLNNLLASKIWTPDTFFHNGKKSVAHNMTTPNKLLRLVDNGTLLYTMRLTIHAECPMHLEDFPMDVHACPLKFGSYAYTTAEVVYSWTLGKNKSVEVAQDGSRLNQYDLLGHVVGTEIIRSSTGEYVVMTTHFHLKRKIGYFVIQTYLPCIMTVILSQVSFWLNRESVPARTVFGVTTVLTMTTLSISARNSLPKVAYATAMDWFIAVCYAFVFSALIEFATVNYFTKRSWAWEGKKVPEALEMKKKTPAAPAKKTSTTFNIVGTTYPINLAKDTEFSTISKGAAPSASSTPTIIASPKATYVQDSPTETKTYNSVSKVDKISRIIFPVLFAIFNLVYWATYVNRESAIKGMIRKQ
# [2] = target: T2, Gamma-aminobutyric acid receptor subunit alpha-5 (Homo sapiens) (UniProt P31644); experiment: Binding affinity to GABA-A alpha5 (unknown origin) assessed as increase in induced current relative to control
# T2 sequence (whole entry): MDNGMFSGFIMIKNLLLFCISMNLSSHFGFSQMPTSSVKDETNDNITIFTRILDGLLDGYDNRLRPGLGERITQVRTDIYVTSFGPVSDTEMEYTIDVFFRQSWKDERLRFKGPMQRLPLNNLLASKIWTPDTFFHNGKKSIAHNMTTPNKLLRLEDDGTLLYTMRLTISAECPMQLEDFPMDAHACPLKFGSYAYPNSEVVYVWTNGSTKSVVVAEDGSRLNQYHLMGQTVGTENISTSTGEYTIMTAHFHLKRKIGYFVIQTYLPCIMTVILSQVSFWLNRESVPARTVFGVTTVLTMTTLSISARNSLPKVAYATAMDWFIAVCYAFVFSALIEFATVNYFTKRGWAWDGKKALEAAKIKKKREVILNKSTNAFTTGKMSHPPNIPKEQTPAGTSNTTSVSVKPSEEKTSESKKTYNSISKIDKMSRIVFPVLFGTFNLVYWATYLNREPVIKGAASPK
# [3] = target: T3, Gamma-aminobutyric acid receptor subunit alpha-2 (Homo sapiens) (UniProt P47869); experiment: Binding affinity to GABA-A alpha2 (unknown origin) assessed as increase in induced current relative to control
# T3 sequence (whole entry): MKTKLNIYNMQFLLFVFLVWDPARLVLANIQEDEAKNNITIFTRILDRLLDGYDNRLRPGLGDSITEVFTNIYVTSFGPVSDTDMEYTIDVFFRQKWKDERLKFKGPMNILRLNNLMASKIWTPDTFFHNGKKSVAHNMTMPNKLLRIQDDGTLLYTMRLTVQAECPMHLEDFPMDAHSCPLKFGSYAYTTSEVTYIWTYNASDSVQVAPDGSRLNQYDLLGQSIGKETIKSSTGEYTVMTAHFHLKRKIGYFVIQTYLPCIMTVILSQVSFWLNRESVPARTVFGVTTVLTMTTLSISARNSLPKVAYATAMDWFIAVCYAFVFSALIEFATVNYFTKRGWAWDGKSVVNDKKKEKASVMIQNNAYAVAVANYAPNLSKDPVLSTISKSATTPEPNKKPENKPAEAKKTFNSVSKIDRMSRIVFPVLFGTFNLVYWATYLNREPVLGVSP
# [4] = target: T4, GABA-A receptor; alpha-5/beta-3/gamma-2 (Homo sapiens, UniProt P18507+P28472+P31644); experiment: Displacement of [3H]-flumazenil from human GABAA alpha5beta3gamma2 expressed in Ltk cells; format: cell-based
# T4 sequence (P18507 whole entry): T1 sequence (P18507 whole entry)
# T4 sequence (P28472 whole entry): T1 sequence (P28472 whole entry)
# T4 sequence (P31644 whole entry): T2 sequence (whole entry)
# [5] = target: T5, Gamma-aminobutyric acid receptor subunit alpha-1 (Homo sapiens) (UniProt P14867); experiment: Binding affinity to GABA-A alpha1 (unknown origin) assessed as increase in induced current relative to control
# T5 sequence (whole entry): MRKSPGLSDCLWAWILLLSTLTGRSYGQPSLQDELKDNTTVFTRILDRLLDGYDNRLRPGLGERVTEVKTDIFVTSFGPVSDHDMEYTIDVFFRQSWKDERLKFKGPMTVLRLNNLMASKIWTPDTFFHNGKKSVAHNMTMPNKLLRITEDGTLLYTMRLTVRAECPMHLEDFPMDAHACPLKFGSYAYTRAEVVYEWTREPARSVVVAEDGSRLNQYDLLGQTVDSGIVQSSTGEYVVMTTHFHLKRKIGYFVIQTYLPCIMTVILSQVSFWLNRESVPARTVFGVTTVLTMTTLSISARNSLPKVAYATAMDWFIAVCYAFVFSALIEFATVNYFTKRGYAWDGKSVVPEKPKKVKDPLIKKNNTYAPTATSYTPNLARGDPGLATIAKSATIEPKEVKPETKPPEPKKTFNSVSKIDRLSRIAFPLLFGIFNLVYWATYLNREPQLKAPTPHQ
# [6] = target: T6, GABA-A receptor; alpha-1/beta-3/gamma-2 (Homo sapiens, UniProt P14867+P18507+P28472); experiment: Displacement of [3H]-flumazenil from human GABAA alpha1beta3gamma2 expressed in Ltk cells; format: cell-based
# T6 sequence (P14867 whole entry): T5 sequence (whole entry)
# T6 sequence (P18507 whole entry): T1 sequence (P18507 whole entry)
# T6 sequence (P28472 whole entry): T1 sequence (P28472 whole entry)
# [7] = target: T7, Gamma-aminobutyric acid receptor subunit alpha-3 (Homo sapiens) (UniProt P34903); experiment: Binding affinity to GABA-A alpha3 (unknown origin) assessed as increase in induced current relative to control
# T7 sequence (whole entry): T1 sequence (P34903 whole entry)
# [8] = system: Rattus norvegicus; experiment: In vivo receptor occupancy at GABAA receptor in po dosed rat assessed as plasma concentration causing 50% reduction in [3H]-flumazenil receptor labeling by scintillation counting method; format: functional
# [9] = system: Homo sapiens; experiment: In vivo receptor occupancy at GABAA receptor in human assessed as plasma concentration causing reduction in [11C]-flumazenil receptor labeling at 9 ng/ml by PET method relative to control; format: functional
# [10] = system: Rattus norvegicus; experiment: In vivo receptor occupancy at GABAA receptor in po dosed rat assessed as brain concentration causing 50% reduction in [3H]-flumazenil receptor labeling after 18 hrs by scintillation counting method; format: functional
# [11] = target: T3, Gamma-aminobutyric acid receptor subunit alpha-2 (Homo sapiens); experiment: Positive allosteric modulation of GABAA alpha2 (unknown origin) relative to control
# [12] = target: T5, Gamma-aminobutyric acid receptor subunit alpha-1 (Homo sapiens); experiment: Positive allosteric modulation of GABAA alpha1 (unknown origin) relative to control
# [13] = Half life in rat at 1 mg/kg, po; format: ADME, organism-based; conditions: in vivo
# [14] = Intrinsic clearance in human liver microsomes; format: ADME, Microsome; conditions: read-out: CLH
# [15] = system: Homo sapiens; experiment: In vivo receptor occupancy GABAA receptor in human assessed as whole brain concentration causing reduction in [11C]flumazenil receptor labeling at 10 mg after […] by PET method relative to control; format: functional
# [16] = Half life in human at 0.04 to 100 mg, po; format: ADME; conditions: in vivo
# [17] = Displacement of [3H]-flumazenil from human GABAA alpha2beta3gamma2 expressed in HEK293 cell membranes measured after 2 hrs by liquid scintillation counting method
# [18] = system: Rattus norvegicus; experiment: In vivo receptor occupancy at GABAA receptor in po dosed Sprague-Dawley rat assessed as forebrain concentration causing 50% reduction in [3H]-flumazenil receptor labeling after 1 hr by scintillation counting method; format: functional
# [19] = system: Rattus norvegicus; experiment: In vivo receptor occupancy at GABAA receptor in po dosed Sprague-Dawley rat assessed as cerebellum concentration causing 50% reduction in [3H]-flumazenil receptor labeling after 1 hr by scintillation counting method; format: functional
# [20] = system: Rattus norvegicus; experiment: In vivo receptor occupancy at GABAA receptor in po dosed Sprague-Dawley rat assessed as spinal cord concentration causing 50% reduction in [3H]-flumazenil receptor labeling after 1 hr by scintillation counting method; format: functional
# [21] = system: Homo sapiens; experiment: In vivo receptor occupancy GABAA receptor in human assessed as whole brain concentration causing reduction in [11C]flumazenil receptor labeling at 65 mg after […] by PET method relative to control; format: functional
# [22] = target: GABA-A receptor; alpha-5/beta-3/gamma-2 (Homo sapiens) (UniProt P18507+P28472+P31644); experiment: Positive allosteric modulation of recombinant human GABAA alpha5beta3gamma2 expressed in Ltk cells assessed as […] current response by whole cell patch clamp method relative to chlordiazepoxide; format: cell-based
# [23] = system: Rattus norvegicus; experiment: In vivo receptor occupancy at GABAA receptor in po dosed Sprague-Dawley rat assessed as brain concentration causing 50% reduction in [3H]-flumazenil receptor labeling by scintillation counting method; format: functional
# [24] = target: GABA-A receptor; alpha-3/beta-3/gamma-2 (Homo sapiens) (UniProt P18507+P28472+P34903); experiment: Positive allosteric modulation of recombinant human GABAA alpha3beta3gamma2 expressed in Ltk cells assessed as […] current response by whole cell patch clamp method relative to chlordiazepoxide; format: cell-based
# [25] = species: Homo sapiens; experiment: Positive allosteric modulation of recombinant human GABAA alpha2beta3gamma2 expressed in Ltk cells assessed as […] current response by whole cell patch clamp method relative to chlordiazepoxide; format: cell-based
# [26] = Displacement of [3H]-flumazenil from human GABAA alpha2beta3gamma2 expressed in Ltk cells; format: cell-based
# [27] = target: GABA-A receptor; alpha-1/beta-3/gamma-2 (Homo sapiens) (UniProt P14867+P18507+P28472); experiment: Positive allosteric modulation of recombinant human GABAA alpha1beta3gamma2 expressed in Ltk cells assessed as […] current response by whole cell patch clamp method relative to chlordiazepoxide; format: cell-based
compound,measurement,setting,value
Cn1ncnc1COc1nn2c(-c3cc(F)ccc3F)nnc2cc1C(C)(C)C,Ki,[1],0.67 nM
same,fold change (FC),[2],0.39
same,fold change (FC),[3],0.43
same,Ki,[4],2.25 nM
same,fold change (FC),[5],0.02
same,Ki,[6],0.79 nM
same,fold change (FC),[7],0.43
CCn1ncnc1COc1nn2c(-c3ccccc3F)nnc2cc1C(C)(C)C [MK-0777],Occ50,[8],25 ng/mL
same,Occ,[9],50%
same,Occ50,[10],0.42 mg/kg
CCn1cnc2c(-c3ccc(F)c(-c4ccc(S(=O)(=O)CC)cc4OC)c3)cnnc21 [DARIGABAT],Activity,[11],> 50%
same,Activity,[12],< 20%
same,half-life,[13],5.5 h
same,microsomal CLint,[14],< 20 µL/min/mg
same,fold change (FC),[2],0.7
same,Occ,[15],69%
same,half-life,[16],6 to 8.9 h
same,fold change (FC),[3],0.35
same,Ki,[17],2.92 nM
same,fold change (FC),[5],0.11
same,Occ50,[18],0.3 to 1 mg/kg
same,Occ50,[19],0.3 to 1 mg/kg
same,Occ50,[20],0.3 to 1 mg/kg
same,Occ,[21],89%
same,fold change (FC),[7],0.49
Cn1ncnc1COc1nn2c(-c3c(F)cccc3F)nnc2cc1C1CCC1,fold change (FC),[22],0.18
same,Occ50,[23],2.2 mg/kg
same,Ki,[1],0.21 nM
same,fold change (FC),[24],0.45
same,Ki,[4],0.23 nM
same,fold change (FC),[25],0.23
same,Ki,[6],0.22 nM
same,Ki,[26],0.4 nM
same,fold change (FC),[27],0.18
